# PMC12080252, “Daphnia magna as an Alternative Model for (Simultaneous) Bioaccumulation and Chronic Toxicity Assessment—Controlled Exposure Study Indicates High Hazard of Heterocyclic PAHs” (Environmental Science & Technology, 2025)
# Values joined by “and” are separate entries in the source; they are usually repeats but may differ in a detail not shown here. Identical values can stand only once.
# Assays:
# [1] = Chronic reproduction toxicity test (OECD 211) with passive dosing; format: in vivo, Daphnia magna; design: % inhibition, avr. of vessels: concentration or dose not given beside the values; settings: Daphnia magna, in vivo, other: waterborne exposure by passive dosing from PDMS disks, 21-day test
# Procedure: (§1) Chronic toxicity tests with D. magna were performed according to the OECD guideline 211^2 using the passive dosing method. Two days before the tests, the exposure solution was predosed by shaking 10 PDMS disks loaded with the test substance in 1 L of medium for 48 h. Each test vessel (250 mL) was first flushed with the dosed solution to equilibrate the vessel walls, then filled with 100 mL of test solution, one PDMS disk, and one juvenile D. magna (<24 h old). The tests were conducted in loosely closed bottles to allow for adequate gas exchange and limit evaporation. The exposure medium was changed three times per week, and the animals were fed D. subspicatus daily (0.2 mg C/Daphnia/day). The number of offspring per adult and behavioral or physiological effects (e.g., size, movement, unhatched eggs) were recorded daily (except weekends). Dissolved oxygen, pH and temperature were also measured each week.
# (§2) Tests were performed under static conditions (20 °C, 16:8 h light/dark cycle, 1 klux). Each compound was tested in 10 replicates for controls and limit tests (a single high concentration exposure to screen for significant toxic effects) and with 6 or 10 replicates for concentration–response tests. Reuse of silicone disks was included in some experiments (Table S3). Reproductive inhibition was assessed by counting offspring over 21 days. The number of offspring per mother in treatment groups was compared to controls, and the percent inhibition per replicate was used to generate concentration–response curves. A minimum of five concentrations per compound were tested to determine EC10, EC20, and EC50 values. For each test, three sets of polymers were rotated between loading, dosing, and exposure stages (Figure S2). Initial (before animal and food addition) and final (after 2–3 days of exposure, just before the medium change) water concentrations (CW) were monitored, with the latter collected after centrifugation to remove biomass (e.g., algae, carapaces, or feces).
# (§3) All data are presented as average ± standard deviation. Student’s t test was used to analyze significance (p-value >0.05 considered insignificant). Concentration–response curve parameters (effective concentrations and confidence limits) and plots were generated using GraphPad Prism software (V6.01, GraphPad Software, La Jolla, CA, USA). The exposure concentrations were log10 transformed before fitting. Then a four parameters logistic model with variable slope was used to obtain EC10, EC20 and EC50 (see section S5 in SI file for details). Effective chemical activities (EA50) for chronic toxicity were calculated as follows: [drawing 1] 1 […]
# (§4) S5. Concentration-response curve (CRC) fitting procedure
# (§5) GraphPad Prism version 9.5.1 was used to fit CRC and obtain EC10, EC20, EC50 values and their confidence intervals. The exposure concentrations were log10 transformed before fitting. Then a four parameters logistic model with variable slope was used that describes the response as a function of following four parameters: minimum response (the Bottom), maximum response (the Top), the concentration required to cause a response half-way between the minimum and maximum (the EC50) and the slope of the curve […]
# (§6) concentration. The Top was constrained to 100, the Bottom was constrained to 0, the HillSlope was not […]
# (§7) !"# %& = !"# %&* − , × !"# 3 * 4
# (§8) (, + ,((!"# %&'(<=)×-.!!/!"01)
# (§9) Figure S7 Concentration-response curves of four NSO-PAHs based on reproductive inhibition during 21-day chronic toxicity tests with D. magna.
# (§10) (1 picture or pasted object on this page, not shown here)
# [2] = test system: Daphnia magna; test: as above; format: in vivo; design: % inhibition, avr. of vessels: concentration or dose not given beside the values; settings: for EC10: 21-day reproduction inhibition; for #offspring per mother, Total: single vessels (replicates); for #dead offspring per mother, Total: single vessels; for wet weight of parent daphnids, change relative to control: end of 21-d exposure
# Procedure: as §1, §2, §3, §4, §5, §6, §7, §8, §9, §10
# [3] = test system: D. magna; test: PNEC and risk quotient estimation; design: species or system Daphnia magna; settings: environmental concentration of surrogate (CRB, DBF, DBT) / PNEC
# From the text: To ensure a precautionary approach, an AF of 100 was applied, which accounts for interspecies variability and uncertainties in extrapolating laboratory findings to real-world conditions.
# Environmental concentration (EC) data are obtained from A CRB, B DBF, and C DBT by choosing the highest
# concentration that remains below the solubility limit of the respective NSO-PAH, as described in Reference 24.
# [4] = cited from earlier work
# [5] = 21-day reproduction test, sheet Test 4-BNF, last treatment block, single replicate vessels 1-6
# [6] = BNF avr. medium concentration 0.77 µg/L, 21 days
# [7] = BNF avr. medium concentration 2.99 µg/L, 21 days
smiles,measurement,setting,value
"c1ccc2c(c1)ccc1oc3ccccc3c12 [BNF, benzo[b]naphtho[1,2-d]furan]","mortality at 21 days, 0.3 µg/L","[1]; 0.3 µg/L (Fig. S8), read-out: % offspring mortality of total offspring",0.3%
same,"mortality at 21 days, 0.8 µg/L","[1]; 0.8 µg/L (Fig. S8), read-out: % offspring mortality of total offspring",0%
same,"mortality at 21 days, 1.5 µg/L","[1]; 1.5 µg/L (Fig. S8), read-out: % offspring mortality of total offspring",0.4%
same,"mortality at 21 days, 3 µg/L","[1]; 3.0 µg/L (Fig. S8), read-out: % offspring mortality of total offspring",0%
same,"mortality at 21 days, 4.4 µg/L","[1]; 4.4 µg/L (Fig. S8), read-out: % offspring mortality of total offspring",0.7%
same,mortality at 21 days,"[1]; at higher exposure levels, read-out: offspring mortality",< 1%
same,EC10,[2]; 97.5-2.5% confidence interval in brackets,0.91 (0.35-1.67) μg L^-1
same,EC10,[2]; confidence interval in brackets,4.17 (1.60-7.63) nmol L^-1
same,"% inhibition, avr. of vessels","[2]; 21-day reproduction test, sheet Test 4-BNF, last treatment block, average of 6 vessels",35.3%
same,"% inhibition (of reproduction, per vessel)",[2]; [5],17.3% and 34.4% and 37.2% and 35.8% and 67.2% and 20.1%
same,Total #dead offspring per mother (per vessel),[2]; [5],1 and 0
same,growth of parent D. magna (wet weight),"[2]; 21-day test, p-value <0.05",significantly inhibited D. magna growth
same,%offspring mortality,[2]; 21 days,0.73%
same,#average live offspring,"[2]; 21 days, mean of 6 vessels, sheet Test 4-BNF, last treatment block",45
same,"LOEC (lowest observed effect concentration, reproduction inhibition)","[2]; 21 days, p-value <0.05 vs controls",3.0 μg L^–1
same,#total live offspring,"[2]; 21 days, sum of 6 vessels, sheet Test 4-BNF, last treatment block",272
same,"#offspring per mother, Total","[2]; BNF avr. medium concentration 0.35 µg/L (methanol for dosing 0.063 g/L), 21 days",77 and 63 and 72 and 59 and 68
same,%offspring mortality,"[2]; BNF avr. medium concentration 0.35 µg/L, 21 days",0.25%
same,"% inhibition, avr.","[2]; BNF avr. medium concentration 0.35 µg/L, 21 days, average of vessels",4.4%
same,#average live offspring,"[2]; BNF avr. medium concentration 0.35 µg/L, 21 days, per mother",67
same,#total live offspring,"[2]; BNF avr. medium concentration 0.35 µg/L, 21 days, sum of all vessels",402
same,"#offspring per mother, Total","[2]; BNF avr. medium concentration 0.77 µg/L (methanol for dosing 0.125 g/L), 21 days",72 and 65 and 81 and 60 and 59
same,%offspring mortality,[2]; [6],0.00%
same,"% inhibition, avr.","[2]; BNF avr. medium concentration 0.77 µg/L, 21 days, average of vessels",2.8%
same,#average live offspring,"[2]; BNF avr. medium concentration 0.77 µg/L, 21 days, per mother",68
same,"#dead offspring per mother, Total",[2]; [6],0
same,#total live offspring,"[2]; BNF avr. medium concentration 0.77 µg/L, 21 days, sum of all vessels",409
same,"#offspring per mother, Total","[2]; BNF avr. medium concentration 1.55 µg/L (methanol for dosing 0.25 g/L), 21 days",68 and 44 and 67 and 57 and 40
same,%offspring mortality,"[2]; BNF avr. medium concentration 1.55 µg/L, 21 days",0.36%
same,"% inhibition, avr.","[2]; BNF avr. medium concentration 1.55 µg/L, 21 days, average of surviving vessels",21.3%
same,#average live offspring,"[2]; BNF avr. medium concentration 1.55 µg/L, 21 days, per mother",55
same,#total live offspring,"[2]; BNF avr. medium concentration 1.55 µg/L, 21 days, sum of surviving vessels",276
same,state of the mother animal (parental mortality),"[2]; BNF avr. medium concentration 1.55 µg/L, vessel 5, day 16",dead
same,"#offspring per mother, Total","[2]; BNF avr. medium concentration 2.99 µg/L (methanol for dosing 0.5 g/L), 21 days",46 and 49 and 38 and 47 and 60 and 51
same,%offspring mortality,[2]; [7],0.00%
same,"% inhibition, avr.","[2]; BNF avr. medium concentration 2.99 µg/L, 21 days, average of vessels",30.8%
same,#average live offspring,"[2]; BNF avr. medium concentration 2.99 µg/L, 21 days, per mother",49
same,"#dead offspring per mother, Total",[2]; [7],0
same,#total live offspring,"[2]; BNF avr. medium concentration 2.99 µg/L, 21 days, sum of all vessels",291
same,EA50 (effective chemical activity),"[2]; EC50/subcooled liquid solubility, eq 1",0.002 unitless
same,Classification according to REACH Annex XIII,[2]; chronic EC10 < 10 μg L^–1,toxic to aquatic life
same,CTLBB (critical target lipid body burden),[2]; derived from chronic EC10 using eq 3,1.7 μmol g^-1 octanol
same,"wet weight of parent daphnids, change relative to control",[2]; 0.3 µg/L (Fig. S9),-11%
same,"wet weight of parent daphnids, change relative to control",[2]; 0.8 µg/L (Fig. S9),-23%
same,"wet weight of parent daphnids, change relative to control",[2]; 1.5 µg/L (Fig. S9),-12%
same,"wet weight of parent daphnids, change relative to control",[2]; 3.0 µg/L (Fig. S9),-33%
same,"wet weight of parent daphnids, change relative to control",[2]; 4.4 µg/L (Fig. S9),-38%
same,Parent animal mortality,"[2]; vessel 5, day 16, sheet Test 4-BNF, last treatment block",dead (reported as exposure related)
same,RQ (EC/PNEC),[3],21111
same,SW (water solubility),[4]; measured in previous work,0.25 µg/mL
same,log KOW,[4]; n-octanol-water partition coefficient,5.6
same,log KOC,[4]; organic carbon-water partition coefficient,4.98
